Assay results as given in publication PMC6327988 (Journal of Enzyme Inhibition and Medicinal Chemistry, 2019).

Key:
BuChE = BuChE (Homo sapiens, UniProt P06276); assay: BuChE inhibition, Ellman colorimetric method; format: biochemical; conditions: ratio of BuChE IC50 values
AChE = AChE (Homo sapiens, UniProt P22303); assay: AChE inhibition, Ellman colorimetric method; format: biochemical; conditions: ratio of AChE IC50 values
AChE, sequence (P22303 32-614): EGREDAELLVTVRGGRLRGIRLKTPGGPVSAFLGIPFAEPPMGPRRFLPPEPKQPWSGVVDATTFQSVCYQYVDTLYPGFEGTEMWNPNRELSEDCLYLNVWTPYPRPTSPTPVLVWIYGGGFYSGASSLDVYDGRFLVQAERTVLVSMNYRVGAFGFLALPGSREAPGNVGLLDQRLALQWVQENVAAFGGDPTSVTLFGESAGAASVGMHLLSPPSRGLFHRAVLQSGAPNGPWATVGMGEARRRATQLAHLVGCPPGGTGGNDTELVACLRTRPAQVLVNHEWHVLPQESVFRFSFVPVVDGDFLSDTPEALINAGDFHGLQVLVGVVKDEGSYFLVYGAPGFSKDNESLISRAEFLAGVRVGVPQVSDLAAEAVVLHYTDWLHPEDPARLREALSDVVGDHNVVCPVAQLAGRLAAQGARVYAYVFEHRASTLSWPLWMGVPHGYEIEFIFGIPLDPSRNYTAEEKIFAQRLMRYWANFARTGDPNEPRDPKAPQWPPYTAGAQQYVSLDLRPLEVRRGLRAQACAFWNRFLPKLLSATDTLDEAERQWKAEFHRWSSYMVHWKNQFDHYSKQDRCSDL

BuChE, sequence (P06276 29-602): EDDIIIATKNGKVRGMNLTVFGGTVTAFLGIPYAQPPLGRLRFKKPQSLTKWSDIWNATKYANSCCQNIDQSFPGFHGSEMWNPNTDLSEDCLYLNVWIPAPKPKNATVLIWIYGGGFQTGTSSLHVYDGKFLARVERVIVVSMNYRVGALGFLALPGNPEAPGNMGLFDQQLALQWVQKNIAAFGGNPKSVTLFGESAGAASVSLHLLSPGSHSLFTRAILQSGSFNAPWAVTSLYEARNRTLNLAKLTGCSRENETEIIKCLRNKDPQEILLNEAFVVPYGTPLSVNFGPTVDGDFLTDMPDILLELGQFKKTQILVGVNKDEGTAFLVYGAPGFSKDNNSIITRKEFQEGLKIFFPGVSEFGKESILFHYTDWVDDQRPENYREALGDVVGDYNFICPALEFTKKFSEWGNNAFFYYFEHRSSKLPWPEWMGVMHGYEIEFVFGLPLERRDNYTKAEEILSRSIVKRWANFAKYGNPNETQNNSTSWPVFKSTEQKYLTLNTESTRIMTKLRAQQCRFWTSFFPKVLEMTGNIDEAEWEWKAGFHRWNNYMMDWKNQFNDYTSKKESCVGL

Structure (SMILES): O=c1[nH]cc(Br)c(=O)[nH]1 [Compound 3, 5-bromo-1H-pyrimidine-2,4-dione]
- fold weaker BuChE inhibitor compared to uracil derivative 4 (BuChE; vs 4): 2.13 fold

Structure (SMILES): Cc1ccc(S(=O)(=O)n2cc(Br)c(=O)[nH]c2=O)cc1 [Compound 4, 5-Bromo-1-(toluene-4-sulfonyl)-1H-pyrimidine-2,4-dione]
- fold better BuChE inhibitor compared to 5 (BuChE; vs 5): 1.42 fold
- fold less active compared to neostigmine (BuChE) (BuChE; vs neostigmine): 1.63 fold
- fold stronger AChE inhibitory profile compared to uracil 3 (AChE; vs 3): 1.71 fold
- fold active compared to neostigmine (AChE) (AChE; vs neostigmine): 1.54 fold

Structure (SMILES): CS(=O)(=O)n1cc(Br)c(=O)[nH]c1=O [Compound 5, 5-Bromo-1-methanesulfonyl-1H-pyrimidine-2,4-dione]
- fold decrease of AChE inhibitory activity, mesylate vs toluene-4-sulfonyl group (AChE; 5 vs 4): 1.26 fold
